From PMC9279635 (Acta Pharmaceutica Sinica. B, 2021)
Like-named read-outs stand apart in the source and are kept apart here.

Columns and labels:
Type in all cases: biochemical
DDR2 = target: T1, DDR2 (Homo sapiens, UniProt Q16832); experiment: ELISA kinase assay, DDR2
T1 sequence (Q16832 22-855): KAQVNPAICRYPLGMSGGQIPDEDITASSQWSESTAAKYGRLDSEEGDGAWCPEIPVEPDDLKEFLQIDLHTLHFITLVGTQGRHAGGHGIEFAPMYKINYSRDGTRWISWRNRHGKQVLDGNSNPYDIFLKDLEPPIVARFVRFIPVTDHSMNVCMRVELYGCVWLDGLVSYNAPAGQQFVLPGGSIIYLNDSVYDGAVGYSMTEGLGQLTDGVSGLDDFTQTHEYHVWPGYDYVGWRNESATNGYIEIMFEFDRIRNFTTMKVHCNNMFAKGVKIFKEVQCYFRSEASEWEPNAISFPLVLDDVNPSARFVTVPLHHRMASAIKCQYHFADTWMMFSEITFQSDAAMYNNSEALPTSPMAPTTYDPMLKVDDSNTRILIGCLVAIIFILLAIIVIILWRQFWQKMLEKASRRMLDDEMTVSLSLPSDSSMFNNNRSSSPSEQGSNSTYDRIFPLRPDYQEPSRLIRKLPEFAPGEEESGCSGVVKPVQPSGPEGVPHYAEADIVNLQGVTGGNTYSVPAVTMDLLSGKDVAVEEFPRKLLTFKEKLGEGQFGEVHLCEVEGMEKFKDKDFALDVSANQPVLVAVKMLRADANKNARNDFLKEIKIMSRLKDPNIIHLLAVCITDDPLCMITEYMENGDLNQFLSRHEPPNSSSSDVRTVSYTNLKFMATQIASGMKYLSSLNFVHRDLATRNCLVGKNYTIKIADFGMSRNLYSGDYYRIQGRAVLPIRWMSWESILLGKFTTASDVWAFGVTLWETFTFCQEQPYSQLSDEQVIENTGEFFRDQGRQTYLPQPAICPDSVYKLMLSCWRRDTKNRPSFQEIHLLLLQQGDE

RET = RET (Homo sapiens, UniProt P07949); experiment: ELISA kinase assay, RET; conditions: for inhibition at 0.01 µM: read-out: RET inhibition @10 nmol/L; for inhibition at 0.1 µM: read-out: RET inhibition @100 nmol/L
Flt-3 = target: T2, Flt-3 (Homo sapiens, UniProt P36888); experiment: ELISA kinase assay, Flt-3; conditions: for inhibition at 0.01 µM: read-out: Flt-3 inhibition @10 nmol/L; for inhibition at 0.1 µM: read-out: Flt-3 inhibition@100 nmol/L
T2 sequence (P36888 27-993): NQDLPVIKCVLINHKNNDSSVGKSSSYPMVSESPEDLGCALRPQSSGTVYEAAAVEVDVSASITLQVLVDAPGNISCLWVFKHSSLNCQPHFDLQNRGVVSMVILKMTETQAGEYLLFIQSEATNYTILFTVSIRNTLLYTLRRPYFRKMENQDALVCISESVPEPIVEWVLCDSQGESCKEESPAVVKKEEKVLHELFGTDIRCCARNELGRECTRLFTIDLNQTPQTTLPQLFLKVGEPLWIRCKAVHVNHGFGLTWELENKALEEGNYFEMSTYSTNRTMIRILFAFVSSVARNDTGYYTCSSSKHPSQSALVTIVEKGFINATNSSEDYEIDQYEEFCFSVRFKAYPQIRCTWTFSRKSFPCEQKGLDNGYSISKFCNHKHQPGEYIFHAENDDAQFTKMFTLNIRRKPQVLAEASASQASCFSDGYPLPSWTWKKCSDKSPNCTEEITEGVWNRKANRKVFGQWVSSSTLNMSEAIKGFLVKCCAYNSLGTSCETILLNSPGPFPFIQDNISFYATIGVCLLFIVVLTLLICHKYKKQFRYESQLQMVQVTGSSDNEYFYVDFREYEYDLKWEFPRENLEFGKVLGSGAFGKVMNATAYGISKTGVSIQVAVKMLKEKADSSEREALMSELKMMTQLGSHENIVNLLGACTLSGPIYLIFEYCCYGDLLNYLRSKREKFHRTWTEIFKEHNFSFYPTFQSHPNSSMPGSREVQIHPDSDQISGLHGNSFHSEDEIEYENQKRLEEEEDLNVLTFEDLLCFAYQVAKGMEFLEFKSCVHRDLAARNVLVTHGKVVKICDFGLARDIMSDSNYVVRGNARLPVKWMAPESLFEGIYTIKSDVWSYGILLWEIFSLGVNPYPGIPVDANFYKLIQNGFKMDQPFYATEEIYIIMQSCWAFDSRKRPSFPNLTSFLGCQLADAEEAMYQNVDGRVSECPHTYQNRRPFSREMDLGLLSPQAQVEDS

[1] = DDR2 IC50, two separate experiments

RET, sequence (P07949 29-1114): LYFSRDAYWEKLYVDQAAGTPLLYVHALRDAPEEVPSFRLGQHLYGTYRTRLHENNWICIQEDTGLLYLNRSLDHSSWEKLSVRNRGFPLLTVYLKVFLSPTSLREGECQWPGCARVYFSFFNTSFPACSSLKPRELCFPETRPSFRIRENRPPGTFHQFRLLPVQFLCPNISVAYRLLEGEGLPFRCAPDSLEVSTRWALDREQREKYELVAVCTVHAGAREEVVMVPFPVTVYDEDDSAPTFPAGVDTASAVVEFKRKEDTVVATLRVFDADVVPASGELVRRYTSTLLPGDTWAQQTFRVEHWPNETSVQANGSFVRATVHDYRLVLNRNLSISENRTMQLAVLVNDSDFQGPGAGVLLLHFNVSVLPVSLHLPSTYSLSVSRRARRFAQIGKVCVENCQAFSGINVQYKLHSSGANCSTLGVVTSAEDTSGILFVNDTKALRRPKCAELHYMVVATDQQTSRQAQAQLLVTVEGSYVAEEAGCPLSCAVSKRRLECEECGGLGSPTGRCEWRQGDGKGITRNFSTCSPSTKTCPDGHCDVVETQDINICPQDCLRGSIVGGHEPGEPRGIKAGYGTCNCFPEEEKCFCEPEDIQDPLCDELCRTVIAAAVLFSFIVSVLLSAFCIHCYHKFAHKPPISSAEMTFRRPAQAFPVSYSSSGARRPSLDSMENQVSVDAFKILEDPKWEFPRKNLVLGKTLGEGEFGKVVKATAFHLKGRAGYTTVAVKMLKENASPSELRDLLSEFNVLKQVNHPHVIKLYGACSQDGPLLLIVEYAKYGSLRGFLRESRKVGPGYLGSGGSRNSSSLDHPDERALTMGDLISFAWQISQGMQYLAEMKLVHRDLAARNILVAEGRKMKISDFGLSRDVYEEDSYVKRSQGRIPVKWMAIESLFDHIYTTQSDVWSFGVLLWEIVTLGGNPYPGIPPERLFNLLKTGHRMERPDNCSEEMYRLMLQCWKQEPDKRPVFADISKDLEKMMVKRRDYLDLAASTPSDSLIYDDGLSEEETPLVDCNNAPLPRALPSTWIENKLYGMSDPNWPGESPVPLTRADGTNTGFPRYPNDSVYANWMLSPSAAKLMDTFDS

IC50 (DDR2; [1])	Compound	other results
3.4 ± 0.7 nM	Cc1ccc(C(=O)Nc2cccc(C(F)(F)F)c2)cc1-c1ccc2nc(NCCN3CCOCC3)ncc2c1 [Compound 18, 4-Methyl-3-(2-((2-morpholinoethyl)amino)quinazolin-6-yl)-N-(3-(trifluoromethyl)phenyl)benzamide]	
3.1 ± 1 nM	Cc1ccc(C(=O)Nc2cc(CN3CCN(C4CCCC4)CC3)cc(C(F)(F)F)c2)cc1-c1ccc2nc(Nc3cnn(C)c3)ncc2c1 [Compound 27, N-(3-((4-Cyclopentylpiperazin-1-yl)methyl)-5-(trifluoromethyl)phenyl)-4-methyl-3-(2-((1-methyl-1H-pyrazol-4-yl)amino)quinazolin-6-yl)benzamide]	inhibition at 0.01 µM (RET): 92.8%; inhibition at 0.01 µM (Flt-3): 94.4%
1.6 ± 0.1 nM	Cc1ccc(C(=O)Nc2cccc(C(F)(F)F)c2)cc1-c1ccc2ccncc2c1 [Compound 11, 3-(Isoquinolin-7-yl)-4-methyl-N-(3-(trifluoromethyl)phenyl)benzamide]	
3.8 ± 0.2 nM	Cc1ccc(C(=O)Nc2cccc(C(F)(F)F)c2)cc1-c1ccc2ncnc(N)c2c1 [Compound 14, 3-(4-Aminoquinazolin-6-yl)-4-methyl-N-(3-(trifluoromethyl)phenyl)benzamide]	
1.7 ± 0.3 nM	Cc1ccc(C(=O)Nc2cc(CN3CCN(C)CC3)cc(C(F)(F)F)c2)cc1-c1ccc2nc(Nc3cnn(C)c3)ncc2c1 [Compound 25, 4-Methyl-3-(2-((1-methyl-1H-pyrazol-4-yl)amino)quinazolin-6-yl)-N-(3-((4-methylpiperazin-1-yl)methyl)-5-(trifluoromethyl)phenyl)benzamide]	inhibition at 0.01 µM (RET): 93.9%; inhibition at 0.01 µM (Flt-3): 93.5%
9.9 ± 1 nM	Cc1ccc(C(=O)Nc2cccc(C(F)(F)F)c2)cc1-c1ccc2nc(NC3CC3)ncc2c1 [Compound 16, 3-(2-(Cyclopropylamino)quinazolin-6-yl)-4-methyl-N-(3-(trifluoromethyl)phenyl)benzamide]	
5.7 ± 0.3 nM	Cc1ccc(C(=O)Nc2cccc(C(F)(F)F)c2)cc1-c1ccc2nc(Nc3ccc(N4CCN(C)CC4)cc3)ncc2c1 [Compound 20, 4-Methyl-3-(2-((4-(4-methylpiperazin-1-yl)phenyl)amino)quinazolin-6-yl)-N-(3-(trifluoromethyl)phenyl)benzamide]	
1.9 ± 0.4 nM	Cc1ccc(C(=O)Nc2cccc(C(F)(F)F)c2)cc1-c1ccc2nc(N)ncc2c1 [Compound 15, 3-(2-Aminoquinazolin-6-yl)-4-methyl-N-(3-(trifluoromethyl)phenyl)benzamide]	
2.9 ± 0.2 nM	Cc1ccc(C(=O)Nc2cc(CN3C[C@H]4CC[C@@H](C3)N4C)cc(C(F)(F)F)c2)cc1-c1ccc2nc(Nc3cnn(C)c3)ncc2c1 [Compound 31, 4-Methyl-3-(2-((1-methyl-1H-pyrazol-4-yl)amino)quinazolin-6-yl)-N-(3-(((1R,5S)-8-methyl-3,8-diazabicyclo[3.2.1]octan-3-yl)methyl)-5-(trifluoromethyl)phenyl)benzamide]	inhibition at 0.01 µM (RET): 95%; inhibition at 0.01 µM (Flt-3): 96%

The remaining lines, values behind:

Compound	IC50 (DDR2; [1])	other results
CC(=O)N1CCN(Cc2cc(NC(=O)c3ccc(C)c(-c4ccc5nc(Nc6cnn(C)c6)ncc5c4)c3)cc(C(F)(F)F)c2)CC1 [Compound 28, N-(3-((4-Acetylpiperazin-1-yl)methyl)-5-(trifluoromethyl)phenyl)-4-methyl-3-(2-((1-methyl-1H-pyrazol-4-yl)amino)quinazolin-6-yl)benzamide]	1.8 ± 0.1 nM	inhibition at 0.01 µM (RET): 91.8%; inhibition at 0.01 µM (Flt-3): 92.4%
Cn1cc(Nc2ncc3cc(-c4cc(C(=O)Nc5cccc(C(F)(F)F)c5)ccc4C4CC4)ccc3n2)cn1 [Compound 35, 4-Cyclopropyl-3-(2-((1-methyl-1H-pyrazol-4-yl)amino)quinazolin-6-yl)-N-(3-(trifluoromethyl)phenyl)benzamide]		inhibition at 0.1 µM (RET): 50.7%; inhibition at 0.1 µM (Flt-3): 37.1%
Cc1ccc(C(=O)Nc2cccc(C(F)(F)F)c2)cc1-c1ccc2nc(N3CCN(C)CC3)ncc2c1 [Compound 19, 4-Methyl-3-(2-(4-methylpiperazin-1-yl)quinazolin-6-yl)-N-(3-(trifluoromethyl)phenyl)benzamide]	42.4 ± 2.3 nM	
Cc1ccc(C(=O)Nc2cccc(C(F)(F)F)c2)cc1-c1ccc2ncncc2c1 [Compound 13, 4-Methyl-3-(quinazolin-6-yl)-N-(3-(trifluoromethyl)phenyl)benzamide]	2.6 ± 0.1 nM	
N-(3-((3,5-Dimethylpiperazin-1-yl)methyl)-5-(trifluoromethyl)phenyl)-4-methyl-3-(2-((1-methyl-1H-pyrazol-4-yl)amino)quinazolin-6-yl)benzamide [Compound 29]		IC50 (DDR2; read-out: DDR2 IC50, two separate experiments): 2.7 ± 0.2 nM; RET inhibition @10 nmol/L (RET; 10 nmol/L): 91.6%; Flt-3 inhibition @10 nmol/L (Flt-3; 10 nmol/L): 93.8%
CC(C)c1ccc(C(=O)Nc2cccc(C(F)(F)F)c2)cc1-c1ccc2nc(Nc3cnn(C)c3)ncc2c1 [Compound 34, 4-Isopropyl-3-(2-((1-methyl-1H-pyrazol-4-yl)amino)quinazolin-6-yl)-N-(3-(trifluoromethyl)phenyl)benzamide]		inhibition at 0.1 µM (RET): 54.5%; inhibition at 0.1 µM (Flt-3): 56.8%
Cc1ccc(C(=O)Nc2cccc(C(F)(F)F)c2)cc1-c1ccc2nc(NC3CCN(C)CC3)ncc2c1 [Compound 17, 4-Methyl-3-(2-((1-methylpiperidin-4-yl)amino)quinazolin-6-yl)-N-(3-(trifluoromethyl)phenyl)benzamide]	10.5 ± 1 nM	
Cc1ccc(C(=O)Nc2cccc(C(F)(F)F)c2)cc1-c1ccc2nc(Nc3cnn(C)c3)nc(N)c2c1 [Compound 23, 3-(4-Amino-2-((1-methyl-1H-pyrazol-4-yl)amino)quinazolin-6-yl)-4-methyl-N-(3-(trifluoromethyl)phenyl)benzamide]	6.5 ± 1.5 nM	
Cc1ccc(C(=O)Nc2cccc(C(F)(F)F)c2)cc1-c1ccc2cnccc2c1 [Compound 12, 3-(Isoquinolin-6-yl)-4-methyl-N-(3-(trifluoromethyl)phenyl)benzamide]	36.5 ± 1 nM	
Cc1ccc(C(=O)Nc2cc(CN3CCN(C(C)C)CC3)cc(C(F)(F)F)c2)cc1-c1ccc2nc(Nc3cnn(C)c3)ncc2c1 [Compound 26, N-(3-((4-Isopropylpiperazin-1-yl)methyl)-5-(trifluoromethyl)phenyl)-4-methyl-3-(2-((1-methyl-1H-pyrazol-4-yl)amino)quinazolin-6-yl)benzamide]	2.2 ± 0.3 nM	inhibition at 0.01 µM (RET): 92.7%; inhibition at 0.01 µM (Flt-3): 90.1%
Cc1ccc(C(=O)Nc2cccc(C(F)(F)F)c2)cc1-c1ccc2c(c1)COCC2 [Compound 10, 3-(Isochroman-7-yl)-4-methyl-N-(3-(trifluoromethyl)phenyl)benzamide]	20.9 ± 5.2 nM	
Cc1ccc(C(=O)Nc2cccc(C(F)(F)F)c2)cc1-c1ccc2nc(Nc3cccc(N4CCN(C)CC4)c3)ncc2c1 [Compound 21, 4-Methyl-3-(2-((3-(4-methylpiperazin-1-yl)phenyl)amino)quinazolin-6-yl)-N-(3-(trifluoromethyl)phenyl)benzamide]	6.3 ± 0.5 nM	
Cc1ccc(C(=O)Nc2cccc(C(F)(F)F)c2)cc1-c1ccc2c(c1)NC(=O)C2 [Compound 9, 4-Methyl-3-(2-oxoindolin-6-yl)-N-(3-(trifluoromethyl)phenyl)benzamide]	4.9 ± 1.1 nM	
